Test systems include A549 NSCLC; HOP-62 NSCLC; M14 melanoma; NCI-H522 lung; NCI/ADR-RES ovarian; OVCAR-3 ovarian; OVCAR-8 ovarian; RXF 393 renal; SK-MEL-28 melanoma; UO-31 renal.
Assay in all cases: growth of human tumour cells (NCI), 48 h

The text below walks through data of PubChem BioAssay (NCI).

Molecules are shown by their SMILES.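 How tested: cells in 96-well plates exposed to compound for 48 hours at five concentrations. The concentration for 50% growth inhibition is given as GI50. TGI is the concentration that stops growth completely.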 Where only a bound is given, the exact number is not on record here.

With `NNC(=O)C(O)C(O)C(O)CO` (stereo not given), the TGI with A549 NSCLC, in the test on HOP-62 NSCLC, in the test with M14 melanoma, in the test with NCI-H522 lung, with NCI/ADR-RES ovarian and in the test with OVCAR-3 ovarian was above 100 µM each time. Besides, the TGI in the test on OVCAR-8 ovarian, in the test with RXF 393 renal, in the test on SK-MEL-28 melanoma and in the test on UO-31 renal was above 100 µM in each case.
For the compound `C[C@]12CC/C(=N\O)C[C@@H]1CC[C@@H]1[C@@H]2CC[C@]2(C)/C(=N/O)CC[C@@H]12`, the GI50 in the test with A549 NSCLC was 52.7 µM; in the test with M14 melanoma, 23.7 µM; in the test with NCI-H522 lung it was 21 µM; in the test with NCI/ADR-RES ovarian, 44.2 µM; in the test on OVCAR-3 ovarian, 17.4 µM; in the test on OVCAR-8 ovarian it was 45.2 µM. Besides, the results for the GI50 in the test on RXF 393 renal, in the test with SK-MEL-28 melanoma and with UO-31 renal were 34.1 µM, above 100 µM and 31.5 µM, respectively. The TGI with A549 NSCLC was above 100 µM; with M14 melanoma, 55.2 µM; with NCI-H522 lung, 58.3 µM; with NCI/ADR-RES ovarian, above 100 µM; with OVCAR-3 ovarian it was 59.1 µM; with OVCAR-8 ovarian it was above 100 µM. The TGI in the test with RXF 393 renal was 71.4 µM; with SK-MEL-28 melanoma, above 100 µM; in the test with UO-31 renal, 78.4 µM.
Consider `O=c1ncc(I)c[nH]1`, for which the GI50 in the test on A549 NSCLC, with HOP-62 NSCLC, with M14 melanoma, in the test on NCI-H522 lung, with NCI/ADR-RES ovarian and in the test on OVCAR-3 ovarian was above 100 µM each time. The GI50 with OVCAR-8 ovarian, with RXF 393 renal, in the test on SK-MEL-28 melanoma and in the test on UO-31 renal was above 100 µM each time. Besides, the TGI in the test on A549 NSCLC, in the test with HOP-62 NSCLC, with M14 melanoma, in the test with NCI-H522 lung, in the test on NCI/ADR-RES ovarian and in the test on OVCAR-3 ovarian was above 100 µM each time. The TGI with OVCAR-8 ovarian, in the test on RXF 393 renal, with SK-MEL-28 melanoma and in the test on UO-31 renal was above 100 µM throughout.
Take `CS(=O)(=O)c1nccc(-c2c(-c3cccc(OCc4ccccc4)c3)nc3sccn23)n1`: the GI50 in the test with A549 NSCLC was above 71.1 µM; in the test with HOP-62 NSCLC, above 80.9 µM; in the test on M14 melanoma, 13.9 µM; in the test on NCI-H522 lung, 9.12 µM; in the test with NCI/ADR-RES ovarian it was 20.3 µM; with OVCAR-3 ovarian, 14.4 µM. Moreover, the GI50 was above 27.4 µM in the test with OVCAR-8 ovarian, 15.3 µM in the test on RXF 393 renal, 12.2 µM in the test on SK-MEL-28 melanoma and 21.2 µM in the test with UO-31 renal. Also, the TGI in the test with A549 NSCLC, with HOP-62 NSCLC, with M14 melanoma, in the test with NCI-H522 lung, in the test on NCI/ADR-RES ovarian and in the test with OVCAR-3 ovarian was above 100 µM each time. Besides, the TGI was above 100 µM in the test with OVCAR-8 ovarian, above 100 µM with RXF 393 renal, above 100 µM with SK-MEL-28 melanoma and 78 µM in the test on UO-31 renal.
Take `C[C@@]1([C@H](OC(=O)c2cccc3ccccc23)C(N)=O)CO1`: the GI50 in the test with A549 NSCLC was 2.12 µM; with HOP-62 NSCLC, 0.978 µM; in the test with M14 melanoma, 1.36 µM; in the test with NCI/ADR-RES ovarian, 0.54 µM; with OVCAR-3 ovarian, 21.6 µM; in the test on OVCAR-8 ovarian, 0.594 µM. Besides, the GI50 is 4.91 µM in the test with RXF 393 renal, 3.08 µM in the test with SK-MEL-28 melanoma and 2.25 µM in the test on UO-31 renal. Further, the TGI with A549 NSCLC is above 20.7 µM; in the test with HOP-62 NSCLC it was 7.29 µM; with M14 melanoma it was 5.31 µM; in the test on NCI-H522 lung, 6 µM; in the test on NCI/ADR-RES ovarian, 4.8 µM; in the test with OVCAR-3 ovarian it was above 100 µM. Also, the TGI was 22.7 µM in the test on OVCAR-8 ovarian, above 21.3 µM with RXF 393 renal, 15.2 µM with SK-MEL-28 melanoma and 8.8 µM in the test with UO-31 renal.
For `CCC1CCC2C3CC=C4CC(OC(C)=O)C(N)CC4(C)C3CCC12C` (stereo not given), the TGI with A549 NSCLC is 5.13 µM; in the test with HOP-62 NSCLC it was 4.47 µM; with M14 melanoma it was 3.6 µM; in the test with NCI-H522 lung, 6.67 µM; in the test with NCI/ADR-RES ovarian, 14.2 µM; in the test with OVCAR-3 ovarian, 10.5 µM. The TGI in the test with OVCAR-8 ovarian was 6.75 µM; in the test with RXF 393 renal, 3.68 µM; in the test with SK-MEL-28 melanoma, 10.4 µM; with UO-31 renal it was 9.68 µM.
In the case of `Cc1ccc(C(=O)Nc2ccc(CN3CCN(C)CC3)c(C(F)(F)F)c2)cc1C#Cc1cnc(N)c2ccc(C#N)cc12`, the GI50 is 0.917 µM in the test on A549 NSCLC; 1.7 µM in the test with HOP-62 NSCLC; 0.0234 µM in the test on M14 melanoma; 0.605 µM with NCI-H522 lung; 2.03 µM in the test on NCI/ADR-RES ovarian; 1.25 µM in the test on OVCAR-3 ovarian. The GI50 was 0.541 µM with OVCAR-8 ovarian, 0.0407 µM in the test on RXF 393 renal, 0.108 µM with SK-MEL-28 melanoma and 0.0224 µM with UO-31 renal. For the same compound, the TGI with A549 NSCLC was 12.8 µM; in the test with HOP-62 NSCLC, 22.9 µM; in the test on M14 melanoma, 2.34 µM; with NCI-H522 lung, above 25.2 µM; in the test on NCI/ADR-RES ovarian it was 10.1 µM; in the test with OVCAR-3 ovarian, 19.2 µM. Also, the TGI with OVCAR-8 ovarian is above 11.7 µM; in the test on RXF 393 renal, 5.82 µM; in the test with SK-MEL-28 melanoma, 3.47 µM; in the test on UO-31 renal it was 2.26 µM.
Regarding `COc1ccc(-c2c(-c3cc4c(c(OC)c3OC)OCO4)noc2N)cc1`, the GI50 in the test with A549 NSCLC is 0.544 µM; in the test with HOP-62 NSCLC, 0.457 µM; in the test on M14 melanoma, 0.231 µM; in the test with NCI-H522 lung, 0.081 µM; in the test on NCI/ADR-RES ovarian it was 0.131 µM; in the test on OVCAR-3 ovarian, 0.184 µM. Also, the GI50 with OVCAR-8 ovarian is 0.455 µM; in the test with SK-MEL-28 melanoma it was 0.459 µM; with UO-31 renal, 2.69 µM. The TGI was above 100 µM with A549 NSCLC; above 100 µM in the test with HOP-62 NSCLC; 3.24 µM in the test with M14 melanoma; 0.432 µM with NCI-H522 lung; 0.741 µM with NCI/ADR-RES ovarian; 0.812 µM in the test with OVCAR-3 ovarian. For the same compound, the TGI in the test on OVCAR-8 ovarian is above 56.1 µM; with SK-MEL-28 melanoma, above 100 µM; in the test with UO-31 renal it was above 100 µM.
